Results taken from publication PMC6305398, “Red Fluorescent Chlamydia trachomatis Applied to Live Cell Imaging and Screening for Antibacterial Agents” (Frontiers in Microbiology, 2018).
≈ marks a conversion by molar mass, not a printed value. Read-outs that look alike come from different tables or passages of the source.

Columns and labels:
[1] = tested on: mCherry expressing C. trachomatis serovar L2 454/Bu; test: Primary screen of natural compound library, Chlamydia inclusion count (mCherry imaging and FITC immunostaining in duplicate plates); type: cell-based, Chlamydia trachomatis; settings: for inhibition at 10 µM: Chlamydia trachomatis, 48 hpi, HeLa cells, vs DMSO control
Method: A general and more detailed protocol for the screening assay is provided in (Supplementary Data Sheet 1) and an overview of the screening method is given in Figure 3. Since inhalation of C. trachomatis aerosols can cause laboratory acquired infections (Sewell, [1995]), all procedures involving handling of live infection in open plates were performed manually inside a class II safety cabinet using 8-channel electronic pipets (Rainin E4 XLS, Mettler Toledo, Barcelona, Spain) and an enclosed aspiration system (Intergra VacuSafe, Zizers, Switzerland).
The primary screen of the 349 open access compound library was performed using the mCherry expressing C. trachomatis serovar L2 454/Bu in clear, flat 96-well plates (Nunc, Delta surface, Thermo Fischer Scientific). The primary screen was done in duplicates in separated plates; one plate was used for mCherry imaging and the other for FITC immunostaining. Cells were seeded at a density of 10,000 cells per well in 100 μl DMEM media 1 day prior to infection in culture media. Chlamydia infection was performed in 30 μl HBSS as described above with a MOI of 0.6 during 1 h at 37°C, 5% CO2. Compounds were diluted to 10 μM in DMEM with a final DMSO concentration of 0.5% and 100 μl per well was added after aspiration of HBSS. The plates were incubated for an additional 47 h at 37°C, 5% CO2 prior to imaging. One of the duplicate plates was used for mCherry imaging and one for FITC immunostaining. For mCherry imaging, HeLa cell nuclei were first stained by addition of 10 μl […] Hoechst per well and incubated at 37°C with 5% CO2 for 20 min. The infected cells were fixed in 4% paraformaldehyde (PFA) for 15 min and washed in PBS before image acquisition. Although fixation was not necessary for the analysis, it inactivated the infectious Chlamydia and enabled later analysis after storage at 4°C. For FITC immunostaining, cells were fixed in 150 μl methanol per well for 10 min, blocked in 1% BSA, 0.25% Tween-20 in PBS and incubated with 1:1,000 polyclonal rabbit anti-chlamydial serum in blocking buffer (Marwaha et al., [2014]). A FITC-conjugated donkey anti-rabbit antibody (Jackson ImmunoResearch) and 1 μg/ml Hoechst staining was used for staining followed by washing with blocking buffer. Images of nuclei (Hoechst-ex386/23 nm) and Chlamydia inclusions (FITC: ex485/20 nm; mCherry: ex549/15 nm) were acquired in the ArrayScan with the 10x objective and counted with the built in software. Chlamydia inclusions in DMSO control wells were used to determine an inclusion size cutoff to exclude small underdeveloped inclusions as well as fluorescent artifacts from the analyses.

[2] = tested on: Trypanosoma brucei; settings: ref Zulfiqar et al., 2017; cited from earlier work
[3] = tested on: mammalian cells; settings: cited from earlier work
[4] = tested on: T. cruzi; settings: ref Zulfiqar et al., 2017; cited from earlier work
[5] = ref Davis et al., 2013; cited from earlier work
[6] = tested on: HeLa cells; test: in vitro; type: cell-based
Method: (§1) HeLa299 cells were inoculated into clear, flat 96-well plates (Nunc, Delta surface, Thermo Fischer Scientific) with a density of 7,000 cells per well and cultured overnight at 37°C with 5% CO2 in […] supplemented with 10% FBS and 2 mM L-glutamine. The following day, the RPMI was replaced with DMEM without phenol red (Life Technologies, Carlsbad, CA, USA) containing 0.5% DMSO with or without test compounds at 25 and 50 μM concentrations incubated at 37°C with 5% CO2 for 48 h. At least three replicate wells for each compound concentration were tested. Wells without cells were used as blank controls. Following this incubation with compounds, cells were washed with DMEM to remove remaining colored compounds and fresh DMEM without phenol red was added before the XTT Cell Proliferation Assay kit was used according to the manufacturer's instructions (ATCC, Manassas, VA, USA). Briefly, activation reagent and XTT reagent were thawed at 37°C, then mixed in a 1:50 ratio with enough volume to add 50 μL to each well. The plates were placed in the 37°C incubator for 2.5 h. The absorbance of each well was then read at 475 nm and 660 nm with a Tecan Infinite m200 plate reader (Tecan, Männedorf, Switzerland). To analyze the data, the 660 nm reading was subtracted from the 475 nm reading to help eliminate non-specific readings from the assay results. Average blank control-well readings were subtracted from those containing cells. Final readings from wells containing compound were compared to DMSO control wells and expressed as percent of control.

[7] = in vitro; type: cell-based; settings: human, 48 h, percent of DMSO control; for viability at 25 µM: read-out: HeLa cell viability at 25 μM (%); for viability at 50 µM: read-out: HeLa cell viability at 50 μM (%) (converted)
Method: as §1

[8] = tested on: Staphylococcus aureus; settings: ref Beattie et al., 2016; cited from earlier work
[9] = tested on: Plasmodium falciparum parasites; settings: antimalarial activity; ref Choomuenwai et al., 2012; cited from earlier work
[10] = MOI 0.6, FITC immunostaining, read-out: Screen inhibition at 10 μM (%) FITC
[11] = MOI 0.6, mCherry detection, read-out: Screen inhibition at 10 μM (%) mCherry

| SMILES | inhibition at 10 µM [1, 10] [%] | inhibition at 10 µM [1, 11] [%] | Inhibition of Trypanosoma brucei, active concentrations [2] | Toxicity in mammalian cells ([3]; ref Davis et al., 2013) | Inhibition of T. cruzi, active concentrations [4] | In vitro antimalarial effect, active concentrations [5] | Toxicity to HeLa cells (authors' call) ([6]; non-toxic = viability not below 70% of vehicle control at 25 μM) | viability at 25 µM [7] [%] | viability at 50 µM [7] [%] | Inhibition of Chlamydia growth ([1]; screen at 10 μM) | minimum inhibitory concentration (MIC) [8] [µM] | Toxic effects on mammalian cells ([3]; ref Choomuenwai et al., 2012, Wang et al., 2015) | IC50 [9] [µM] | Reduction of HeLa cell viability ([6]; 25 μM) [%] |
| --- | --- | --- | --- | --- | --- | --- | --- | --- | --- | --- | --- | --- | --- | --- |
| NCCc1c[nH]c2c1C(=O)C1=C(NC=CS1(=O)=O)C2=O [Compound 10, thiaplakortone A] | 96 | 100 | low micromolar concentrations | moderate toxicity | low micromolar concentrations | low nanomolar concentrations | toxic | 5 ± 0.4 | 5 ± 0.5 | – | – | – | – | – |
| COC1=CC(=O)c2c(O)c3c(c(O)c2C1=O)C[C@](C)(O)C[C@@H]3O [Compound 5, (1S,3S)-austrocortirubin] | 0 | 13 | – | – | – | – | – | 5 ± 0.5 | 5.5 | did not inhibit Chlamydia growth | 100 (≈ 32 µg/mL) | toxic effects | 1.9 | 95 |
